In PubChem BioAssay (NCI):
Several values for one entry are separate records, joined by “and”; a condition that tells them apart may be missing. Equal entries are not always repeated.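 96-well plates; 48 h exposure; 5 concentrations. Endpoints by linear interpolation between flanking doses. Not reached: highest tested concentration assigned. Abbreviation: GI50, concentration required for 50% inhibition of growth. TGI: total growth inhibition.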

Tested on: MDA-MB-468 breast
Experiment: NCI tumour cell line growth inhibition, 48 h

SMILES | GI50 | TGI
O=CN1N=C(c2ccc(Cl)cc2)CC1c1cccc(Nc2ccnc3cc(Cl)ccc23)c1 (stereo not given) | 284 nM | 3930 nM
O=C(Nc1ccc(F)cc1F)c1cc(Br)ccc1O | 2540 nM | 6910 nM
O=S(=O)(c1ccc(N=C2NN=C(c3c[nH]c4ccccc34)CS2)cc1)N1CCOCC1 | 5460 nM | > 100000 nM
CCCN1CCN(c2ccc3nc(-c4ccc5nc(-c6cc(OC)ccc6OC)[nH]c5c4)[nH]c3c2)CC1 | 1700 nM | 3310 nM
Cn1ccnc1C(=O)/C=C/c1ccc(CNC(=O)c2ccc(F)cc2)cc1 | 1660 nM | 7040 nM
COc1ccc(-c2nc3ncccn3c2/C=C/C(=O)c2cc(OC)c(OC)c(OC)c2)cc1 | 1810 nM | 3650 nM
CN(C)C1CCN(C(=O)c2ccc(NC(=O)Nc3ccc(-c4nc(N5CCOCC5)nc(N5CCOCC5)n4)cc3)cc2)CC1 | 7.49 nM and 13 nM | 63.6 nM and 185 nM
O=C(CC12CC3CC(CC(C3)C1)C2)NCCOCCOCCOCCNC(=O)c1cc2c(o1)C(=O)c1ccccc1C2=O | 1390 nM | 4360 nM
O=P([O-])(O)OP(=O)([O-])O.[NH-][C@@H]1CCCC[C@H]1[NH-].[Pt+4] | 21500 nM and 8190 nM | > 100000 nM and 27700 nM
Cc1ccc(-c2nc(N)nc3c2nnn3Cc2cccc(CO[C@H]3CCOC3)n2)o1 | 44400 nM | > 100000 nM
Cc1cc(N2CCN(c3ccnc4cc(Cl)ccc34)CC2)nc(NC2CCCCC2)n1 | 1590 nM | 3880 nM
CCN=c1cc2sc3cc(NCC)c(C)cc3nc-2cc1C | 860 nM | 5570 nM
C=C[C@H]1CCC/C=C/[C@@H]2C[C@H](O)C[C@H]2[C@H](O)/C=C/C(=O)O1 | < 10 nM | < 15.3 nM
C=CCN1C=CC(=O)[C@H](O[Si](C)(C)C(C)(C)C)[C@@H]1/C=C/c1ccccc1 | 8270 nM | 22200 nM
C[C@@H]1N=C(c2ccc(Br)cc2)Nc2nc3ccccn3c2C1=O | 1980 nM | 5120 nM
c1cc(OCCN2CCCCC2)ccc1CNc1ccc2nc(CCC3CCCCC3)[nH]c2c1 | 1580 nM | 3840 nM
O=c1[nH]ccc2nc(N3CCC(O)CC3)nc(Nc3cccc(C(F)(F)F)c3)c12 | 1760 nM | 7110 nM
Cc1cc(N2CCCC2)nc(NC2CCCC(Nc3ccnc4cc(Cl)ccc34)C2)n1 (stereo not given) | 1410 nM | 3140 nM
COc1ccc(CNc2c3ccccc3nc3ccc(OC)cc23)cc1 | 1820 nM | 4310 nM
O=C([O][Hg][CH2]C1COCC([CH2][Hg][O]C(=O)c2ccccc2)O1)c1ccccc1 (stereo not given) | 1720 nM | 3240 nM
Nc1cc(-c2cccc(OC(F)(F)F)c2)nc2ccc(N3CCCC3)cc12 | 33.7 nM and 30.4 nM and 28.8 nM | 237 nM and 115 nM and 136 nM
CCN(CC)CCOc1ccc(C(=C(C)Cc2ccc(OC)cc2)c2ccc(OCCN(CC)CC)cc2)cc1 | 3270 nM | 6650 nM
CCOc1ccc(Nc2nc(-c3ccc4c(c3)NC(=O)CO4)cs2)cc1 | 2460 nM | 8040 nM
COC(=O)c1c2c(c(C)[n+]([O-])c1C)C(=O)C=C(NCc1ccc(OC)cc1)C2=O | 679 nM | 2010 nM
NC(=O)c1ccc2c(-c3ccnc(NCCCO)n3)c(-c3ccc(F)cc3)nn2c1 | > 16100 nM | > 25000 nM
